Values of other authors in patent US20200299317A1 (Tokuyama Corporation, priority 2018, published 2020).

Conditions: ferric citrate obtainable per Patent Literature 2

ferric citrate
BET specific surface area: 20 to 45 m^2/g
